± gives the expanded uncertainty stated by the source.
Settings: Crystal; DTA

For `CC[C@H]1OC(=O)[C@H](C)[C@@H](O[C@H]2C[C@@](C)(OC)[C@@H](O)[C@H](C)O2)[C@H](C)[C@@H](O[C@@H]2O[C@H](C)C[C@H](N(C)C)[C@H]2O)[C@](C)(O)C[C@@H](C)C(=O)[C@H](C)[C@@H](O)[C@]1(C)O.O.O` [erythromycin A dihydrate], the Normal melting temperature was 137.7 ± 0.5 °C.

Reference: the NIST ThermoML archive (doi:10.1021/je0505265)
